Experimental data taken from US20250186627A1, “RADIOLABELED COMPOUNDS TARGETING THE PROSTATE-SPECIFIC MEMBRANE ANTIGEN” (PROVINCIAL HEALTH SERVICES AUTHORITY, priority 2022, published 2025).
*1 amine or outer side, *2 acyl side, *3 side chain or, on linkers, in order; H or OH if unused. Where a SMILES comes first, the peptide text is derived from it. [ ]: non-standard residue; d: D form. The star is where a group is joined. ξ: configuration not given here. ξLys(Nα-CO-ξAad) = O=C(O)CCCC(NC(=O)NC(CCCCN*)C(=O)O)C(=O)O; Butanoyl(4-(4-NO2Ph)) = O=C(CCCc1ccc([N+](=O)[O-])cc1)*; DOTA = O=C(O)CN1CCN(CC(=O)O)CCN(CC(=O)*)CCN(CC(=O)O)CC1; ξAla(9-anthryl) = NC(Cc1c2ccccc2cc2ccccc12)C(=O)O; X1 = O=C(C1CCC(CN[*:1])CC1)[*:2]; ξK = NCCCCC(N)C(=O)O

Tested on: NRG-mice bearing LNCaP tumors
Assay: Biodistribution (and PET/SPECT imaging) in NRG-mice bearing LNCaP tumors
Format: in vivo
Conditions: for Biodistribution: Adrenal gland / Biodistribution: Blood / Biodistribution: Bone / Biodistribution: Brain / Biodistribution: Fat / Biodistribution: Heart / Biodistribution: Intestine / Biodistribution: LNCaP tumor / Biodistribution: Lacrimal gland / Biodistribution: Liver / Biodistribution: Lungs / Biodistribution: Muscle / Biodistribution: Pancreas / Biodistribution: Salivary gland / Biodistribution: Seminal gland / Biodistribution: Spleen / Biodistribution: Stomach / Biodistribution: Testes / Biodistribution: Thyroid / Biodistribution: Urine / Biodistribution: kidney: Avg
Method: LNCaP cell line was obtained from ATCC (LNCaP clone FGC, CRL-1740). It was established from a metastatic site of left supraclavicular lymph node of human prostatic adenocarcinoma. Cells were cultured in PRMI 1640 medium supplemented with 10% FBS, penicillin (100 U/mL) and streptomycin (100 μg/mL) at 37° C. in a humidified incubator containing 5% CO2. Cells grown to 80-90% confluence were then washed with sterile phosphate-buffered saline (1×PBS pH 7.4) and trypsinization. The collected cells number was counted with a Hausser Scientific (Horsham, PA) Hemacytometer. Approximately 10 million LNCaP cells were inoculated into the left dorsal flank of immunocomprised NRG mice. The tumours were allowed to grow for 4-6 weeks and used for imaging and biodistribution studies when a volume of 200-600 mm^3 was reached.
PET imaging experiments were conducted using Siemens Inveon micro PET/CT scanner. SPECT imaging experiments were conducted using an MILabs micro SPECT/CT scanner. Each tumor bearing mouse was injected 4-6 MBq of ^68Ga or 18.5 MBq of ^177Lu labeled tracer through the tail vein under anesthesia (2% isoflurane in oxygen). The mice were allowed to recover and roam freely in their cage. At pre-defined time point, the mice were sedated again with 2% isoflurane in oxygen inhalation and positioned in the scanner. A 10-min CT scan was conducted first for localization and attenuation correction after segmentation for reconstructing the PET or SPECT images. Then, a 10-min static PET imaging or a one hour (30 min×2 frames) of static SPECT scan was performed to determined uptake in tumor and other organs. The mice were kept warm by a heating pad during acquisition.
For biodistribution studies, the mice were injected with the radiotracer as described above. The mice were anesthetized with 2% isoflurane inhalation, and euthanized by CO2 inhalation. Blood was withdrawn immediately from the heart, and the organs/tissues of interest were collected. The collected organs/tissues were weighed and counted using a Perkin Elmer (Waltham, MA) Wizard2 2480 gamma counter. The uptake in each organ/tissue was normalized to the injected dose (radioactivity) using a standard curve, and expressed as the percentage of the injected dose per gram of tissue (% ID/g).

O=C([O-])CN1CCN(CC(=O)[O-])CCN(CC(=O)NCCCCC(NC(=O)CNC(=O)CCCc2ccc([N+](=O)[O-])cc2)C(=O)NCC(=O)NCC2CCC(C(=O)NC(Cc3c4ccccc4cc4ccccc34)C(=O)NCCCCC(NC(=O)NC(CCCC(=O)O)C(=O)O)C(=O)O)CC2)CCN(CC(=O)[O-])CC1.[177Lu+3] (stereo not shown) [^177Lu-CCZ02017] ({Butanoyl(4-(4-NO2Ph))}-G[ξK](DOTA)G[X1][ξAla(9-anthryl)]-{ξLys(Nα-CO-ξAad)})
LNCaP tumor uptake compared to 177Lu-HTK03170: substantially improved
Biodistribution: Adrenal gland (3 h p.i.): 3.41 % ID/g
Biodistribution: Blood (3 h p.i.): 14.17 % ID/g
Biodistribution: Bone (3 h p.i.): 0.78 % ID/g
Biodistribution: Brain (3 h p.i.): 0.24 % ID/g
Biodistribution: Fat (3 h p.i.): 1.85 % ID/g
Biodistribution: Heart (3 h p.i.): 3.24 % ID/g
Biodistribution: Intestine (3 h p.i.): 1.03 % ID/g
Biodistribution: LNCaP tumor (3 h p.i.): 39.27 % ID/g
Biodistribution: Lacrimal gland (3 h p.i.): 0.20 % ID/g
Biodistribution: Liver (3 h p.i.): 2.31 % ID/g
Biodistribution: Lungs (3 h p.i.): 6.68 % ID/g
Biodistribution: Muscle (3 h p.i.): 1.18 % ID/g
Biodistribution: Pancreas (3 h p.i.): 2.27 % ID/g
Biodistribution: Salivary gland (3 h p.i.): 2.43 % ID/g
Biodistribution: Seminal gland (3 h p.i.): 0.93 % ID/g
Biodistribution: Spleen (3 h p.i.): 2.25 % ID/g
Biodistribution: Stomach (3 h p.i.): 1.55 % ID/g
Biodistribution: Testes (3 h p.i.): 6.56 % ID/g
Biodistribution: Thyroid (3 h p.i.): 2.87 % ID/g
Biodistribution: Urine (3 h p.i.): 97.91 % ID/g
Biodistribution: kidney (3 h p.i.): 17.31 % ID/g
Biodistribution: Adrenal gland (24 h p.i.): 0.61 % ID/g
Biodistribution: Blood (24 h p.i.): 0.61 % ID/g
Biodistribution: Bone (24 h p.i.): 0.07 % ID/g
Biodistribution: Brain (24 h p.i.): 0.03 % ID/g
Biodistribution: Fat (24 h p.i.): 0.20 % ID/g
Biodistribution: Heart (24 h p.i.): 0.24 % ID/g
Biodistribution: Intestine (24 h p.i.): 0.13 % ID/g
Biodistribution: LNCaP tumor (24 h p.i.): 89.90 % ID/g
Biodistribution: Lacrimal gland (24 h p.i.): 0.04 % ID/g
Biodistribution: Liver (24 h p.i.): 0.31 % ID/g
Biodistribution: Lungs (24 h p.i.): 0.55 % ID/g
Biodistribution: Muscle (24 h p.i.): 0.08 % ID/g
Biodistribution: Pancreas (24 h p.i.): 0.11 % ID/g
Biodistribution: Salivary gland (24 h p.i.): 0.35 % ID/g
Biodistribution: Seminal gland (24 h p.i.): 0.07 % ID/g
Biodistribution: Spleen (24 h p.i.): 0.35 % ID/g
Biodistribution: Stomach (24 h p.i.): 0.15 % ID/g
Biodistribution: Testes (24 h p.i.): 0.48 % ID/g
Biodistribution: Thyroid (24 h p.i.): 0.40 % ID/g
Biodistribution: Urine (24 h p.i.): 9.85 % ID/g
Biodistribution: kidney (24 h p.i.): 5.58 % ID/g
Biodistribution: Adrenal gland (72 h p.i.): 0.34 % ID/g
Biodistribution: Blood (72 h p.i.): 0.07 % ID/g
Biodistribution: Bone (72 h p.i.): 0.02 % ID/g
Biodistribution: Brain (72 h p.i.): 0.01 % ID/g
Biodistribution: Fat (72 h p.i.): 0.15 % ID/g
Biodistribution: Heart (72 h p.i.): 0.10 % ID/g
Biodistribution: Intestine (72 h p.i.): 0.04 % ID/g
Biodistribution: LNCaP tumor (72 h p.i.): 70.84 % ID/g
Biodistribution: Lacrimal gland (72 h p.i.): 0.01 % ID/g
Biodistribution: Liver (72 h p.i.): 0.23 % ID/g
Biodistribution: Lungs (72 h p.i.): 0.16 % ID/g
Biodistribution: Muscle (72 h p.i.): 0.02 % ID/g
Biodistribution: Pancreas (72 h p.i.): 0.04 % ID/g
Biodistribution: Salivary gland (72 h p.i.): 0.14 % ID/g
Biodistribution: Seminal gland (72 h p.i.): 0.03 % ID/g
Biodistribution: Spleen (72 h p.i.): 0.38 % ID/g
Biodistribution: Stomach (72 h p.i.): 0.04 % ID/g
Biodistribution: Testes (72 h p.i.): 0.29 % ID/g
Biodistribution: Thyroid (72 h p.i.): 0.16 % ID/g
Biodistribution: Urine (72 h p.i.): 2.63 % ID/g
Biodistribution: kidney (72 h p.i.): 3.21 % ID/g
Biodistribution: Adrenal gland (144 h p.i.): 0.23 % ID/g
Biodistribution: Blood (144 h p.i.): 0.01 % ID/g
Biodistribution: Bone (144 h p.i.): 0.02 % ID/g
Biodistribution: Brain (144 h p.i.): 0.01 % ID/g
Biodistribution: Fat (144 h p.i.): 0.22 % ID/g
Biodistribution: Heart (144 h p.i.): 0.04 % ID/g
Biodistribution: Intestine (144 h p.i.): 0.01 % ID/g
Biodistribution: LNCaP tumor (144 h p.i.): 116.43 % ID/g
Biodistribution: Lacrimal gland (144 h p.i.): 0.00 % ID/g
Biodistribution: Liver (144 h p.i.): 0.09 % ID/g
Biodistribution: Lungs (144 h p.i.): 0.08 % ID/g
Biodistribution: Muscle (144 h p.i.): 0.01 % ID/g
Biodistribution: Pancreas (144 h p.i.): 0.01 % ID/g
Biodistribution: Salivary gland (144 h p.i.): 0.05 % ID/g
Biodistribution: Seminal gland (144 h p.i.): 0.01 % ID/g
Biodistribution: Spleen (144 h p.i.): 0.37 % ID/g
Biodistribution: Stomach (144 h p.i.): 0.02 % ID/g
Biodistribution: Testes (144 h p.i.): 0.15 % ID/g
Biodistribution: Thyroid (144 h p.i.): 0.11 % ID/g
Biodistribution: Urine (144 h p.i.): 1.88 % ID/g
Biodistribution: kidney (144 h p.i.): 1.98 % ID/g
Biodistribution: Adrenal gland (240 h p.i.): 0.02 % ID/g
Biodistribution: Blood (240 h p.i.): 0.00 % ID/g
Biodistribution: Bone (240 h p.i.): 0.01 % ID/g
Biodistribution: Brain (240 h p.i.): 0.00 % ID/g
Biodistribution: Fat (240 h p.i.): 0.06 % ID/g
Biodistribution: Heart (240 h p.i.): 0.01 % ID/g
Biodistribution: Intestine (240 h p.i.): 0.01 % ID/g
Biodistribution: LNCaP tumor (240 h p.i.): 95.45 % ID/g
Biodistribution: Lacrimal gland (240 h p.i.): 0.00 % ID/g
Biodistribution: Liver (240 h p.i.): 0.06 % ID/g
Biodistribution: Lungs (240 h p.i.): 0.14 % ID/g
Biodistribution: Muscle (240 h p.i.): 0.01 % ID/g
Biodistribution: Pancreas (240 h p.i.): 0.00 % ID/g
Biodistribution: Salivary gland (240 h p.i.): 0.01 % ID/g
Biodistribution: Seminal gland (240 h p.i.): 0.00 % ID/g
Biodistribution: Spleen (240 h p.i.): 0.50 % ID/g
Biodistribution: Stomach (240 h p.i.): 0.01 % ID/g
Biodistribution: Testes (240 h p.i.): 0.08 % ID/g
Biodistribution: Thyroid (240 h p.i.): 0.03 % ID/g
Biodistribution: Urine (240 h p.i.): 0.43 % ID/g
Biodistribution: kidney (240 h p.i.): 0.46 % ID/g
